From patent US20220380375A1, “SUBSTITUTED AROMATIC FUSED RING DERIVATIVE AND COMPOSITION COMPRISING SAME, AND USE THEREOF” (Shenzhen TargetRx, Inc., priority 2019, published 2022)
Marks after values point to notes of the source that are not given here.

How the values were obtained:
[1] = Safety assay (body weight, tolerability) in Ba/F3 KIF5B-RET^G810R cell line tumor model; type: in vivo; conditions: for Number of animals at the beginning/end of assay: 25 mg/kg p.o. QD × 13; for Average weight g (x ± S), Day 0 of administration: 25 mg/kg p.o. QD × 13, day 0 (baseline); for Average weight g (x ± S), Day 13 of administration / Weight change rate (%), Day 13 of administration: 25 mg/kg p.o. QD × 13, day 13; for tolerability (weight loss, drug withdrawal, drug toxicity): during the treatment
Method: (§1) Assay methods: 1) Ba/F3 KIF5B-RET and Ba/F3 KIF5B-RET^G810R cells were respectively resuscitated and Cultured in vitro, and 3×10^7 cells of each type were obtained. 2) 60 female NPSG mice aged 6-8 weeks were adaptively bred for 1 week and then weighed. 4) After inoculation, tumor volume and body weight were measured once a week. When average tumor volume reached about […], mice inoculated with each type of Ba/F3 cells were randomly divided into 7 groups according to tumor volume and body weight, with 3 mice in each group. The administration was started immediately after grouping. The date of start of administration was regarded as day 0. Informations on administration and grouping were shown in Tables 5 and 6.5) After the start of the administration, the body weight and tumor volume of mice were measured twice a week. 6) After the end of the administration, the assay was over.
(§2) Assay observation and data collection: After tumor inoculation, morbidity and death of animals were observed every working day. Daily observation included tumor growth and effects of drugs on laboratory animals, such as changes in activity, changes in feeding and drinking, weight loss, changes in appearance of hair and eye, death and other clinical symptoms. Formula for calculating tumor volume is: tumor volume (mm^3)=½×(a×b^2) (wherein a represents the long diameter and b represents the short diameter)

[2] = tested on: Ba/F3 KIF5B-RET cell line tumor model; assay: Anti-tumor effect assay in Ba/F3 KIF5B-RET cell line tumor model (allograft); type: in vivo, female NPSG mice; conditions: for Tumor volume (x ± S), Day 0 of administration: 10 mg/kg p.o. QD × 14, day 0 (baseline); for TGI (%), Day 14 of administration / Tumor volume (x ± S), Day 14 of administration: 10 mg/kg p.o. QD × 14, day 14
Excerpt: (§3) The efficacy of compounds of the present disclosure in female NPSG mouse allograft models of two B-cell lymphoma cell lines Ba/F3 KIF5B-RET and Ba/F3 KIF5B-RET^G810R was verified.
(§4) Assay animals: Female NPSG mice, 6-8 weeks old (age of mice at the time of tumor cell inoculation), weighing 18-20 g, 60 mice, purchased from Shanghai Jihui Laboratory Animal Care Co., Ltd.
as §1, §2
(§5) Relative tumor inhibition rate TGI (%): TGI %=(1−T/C)×100%. T/C % is relative tumor proliferation rate, that is, a percentage value of relative tumor volume between treatment group and control group at a certain point in time. T and C are relative tumor volume (RTV, that is, the […] tumor volume at this time point and tumor volume at day 0) of treatment group and control group at a certain point in time, respectively.
(§6) Statistical analysis: For pairwise comparison, a T-Test analysis method was used, and for comparison of three or more groups, a One-Way ANOVA method was used. For comparison of potential synergistic effects, a Two-way ANOVA was used. SPSS 24.0 was used for all data. A p value less than 0.05 was considered a significant difference.

Ret wt = target: T1, Ret wt (Homo sapiens, UniProt P07949); assay: Inhibition of kinase, Ret wt (HTRF KinEASE-TK); type: biochemical
T1 construct: purchased Carna 08-159-10 ug
T1 sequence (P07949 29-1114): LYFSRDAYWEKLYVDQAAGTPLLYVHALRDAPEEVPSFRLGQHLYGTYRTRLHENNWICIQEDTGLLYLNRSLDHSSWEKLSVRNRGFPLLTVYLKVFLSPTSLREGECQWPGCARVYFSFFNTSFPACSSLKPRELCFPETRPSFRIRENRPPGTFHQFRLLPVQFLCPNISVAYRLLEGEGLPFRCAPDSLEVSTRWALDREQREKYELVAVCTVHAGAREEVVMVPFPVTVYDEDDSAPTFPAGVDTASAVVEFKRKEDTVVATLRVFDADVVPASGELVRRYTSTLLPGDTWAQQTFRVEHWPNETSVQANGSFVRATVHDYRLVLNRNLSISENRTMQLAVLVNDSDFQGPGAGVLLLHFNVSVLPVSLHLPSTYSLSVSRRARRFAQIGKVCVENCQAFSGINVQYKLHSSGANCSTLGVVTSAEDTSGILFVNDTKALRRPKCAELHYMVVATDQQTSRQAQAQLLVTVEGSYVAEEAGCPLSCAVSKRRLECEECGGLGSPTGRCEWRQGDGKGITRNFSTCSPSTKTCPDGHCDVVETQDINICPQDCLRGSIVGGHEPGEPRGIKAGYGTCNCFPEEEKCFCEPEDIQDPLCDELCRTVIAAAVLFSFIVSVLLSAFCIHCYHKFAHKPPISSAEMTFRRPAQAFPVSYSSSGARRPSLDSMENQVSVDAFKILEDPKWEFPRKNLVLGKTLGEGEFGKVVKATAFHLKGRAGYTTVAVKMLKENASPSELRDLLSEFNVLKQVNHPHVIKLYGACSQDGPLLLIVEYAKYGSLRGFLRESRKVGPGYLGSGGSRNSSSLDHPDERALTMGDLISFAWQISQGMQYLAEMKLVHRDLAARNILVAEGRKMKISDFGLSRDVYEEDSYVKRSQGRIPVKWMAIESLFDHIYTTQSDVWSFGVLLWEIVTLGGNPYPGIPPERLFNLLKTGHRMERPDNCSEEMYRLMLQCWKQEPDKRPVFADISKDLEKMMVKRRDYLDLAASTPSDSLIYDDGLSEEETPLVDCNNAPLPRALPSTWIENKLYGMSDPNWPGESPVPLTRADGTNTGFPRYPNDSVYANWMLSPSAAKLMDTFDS
Method: (§7) Ret wt (Carna, Cat. No. 08-159-10 ug), RET (V804M), Active (Signalchem. Cat. No. R02—12GG), HTRF KinEASE-TK kit (Cisbio, Cat. No.62TK0PEC), CEP-32496 (MCE, Cat. No. HY-15200), ATP (Sigma. Cat. No. A7699), DMSO (Sigma, Cat. No. D8418-1L), DTT (Sigma, Cat. No. D0632), MgCl2(Sigma, Cat. No. M1028), 384-well plate (Labcyte, Cat. No. P-05525-BC).
(§8) Formulation of compound: The test compounds were dissolved in DMSO to obtain 10 mM stock solutions, which were then serially diluted 3-fold in DMSO to obtain 10 concentrations. At the time of addition, the compound was further diluted 10-fold with buffer.
(§9) In 5×kinase buffer A, Ret wt or RET V804M kinase was mixed with different concentrations of compounds prepared by pre-dilution for 10 minutes. Each concentration was tested in duplicate. The corresponding substrate and ATP were added, and reaction was performed at room temperature for 20 minutes (negative and positive controls were provided: the negative control was a blank control, and the positive control was CEP-32496 (Agerafenib)). After completion of the reaction, detection reagents (reagents in the HTRF KinEASE-TK kit) were added. After incubating for 30 minutes at room temperature, enzyme activity in the presence of various concentrations of the compounds of the present disclosure was determined by Envision microplate reader, and inhibitory activity of different concentrations of the compounds on enzyme activity was calculated. The inhibitory activity of different concentrations of the compounds on enzyme activity was fitted by Graphpad 5.0 software, and the IC50 value was calculated.

RET V804M = target: T2, RET V804M (Homo sapiens, UniProt P07949, V804M); assay: Inhibition of kinase, RET V804M (HTRF KinEASE-TK); type: biochemical
T2 construct: purchased Signalchem R02—12GG
T2 sequence (P07949 29-1114 V804M): as the sequence (P07949 29-1114) above, with V776M counted along it
Method: as §7, §8, §9

[3] = tested on: Ba/F3 KIF5B-RET^G810R cell line tumor model; assay: Anti-tumor effect assay in Ba/F3 KIF5B-RET^G810R cell line tumor model (allograft); type: in vivo, female NPSG mice; conditions: for Tumor volume (x ± S), Day 0 of administration / Tumor volume (x ± S), Day 13 of administration / TGI (%), Day 13 of administration: Ba/F3 KIF5B-RET^G810R model; for Tumor volume (x ± S), Day 0 of administration: 25 mg/kg p.o. QD × 13, day 0 (baseline); for Tumor volume (x ± S), Day 13 of administration / TGI (%), Day 13 of administration: 25 mg/kg p.o. QD × 13, day 13; for TGI (%), Day 13 of administration: TGI more than 100% = decrease in tumor volume; for relative tumor inhibition rate TGI (%): day 13 of administration, AD80 group 25 mg/kg
Excerpt: as §3, §4, §1, §2, §5, §6

[4] = Safety assay (body weight, tolerability) in Ba/F3 KIF5B-RET cell line tumor model; type: in vivo; conditions: for Number of animals at the beginning/end of assay: 10 mg/kg p.o. QD × 14; for Average weight g (x ± S), Day 0 of administration: 10 mg/kg p.o. QD × 14, day 0 (baseline); for Average weight g (x ± S), Day 14 of administration / Weight change rate (%), Day 14 of administration: 10 mg/kg p.o. QD × 14, day 14; for tolerability (weight loss, drug withdrawal, drug toxicity): during the treatment
Method: as §1, §2

Structure (SMILES): CC(C)n1nc(-c2ccc(NC(=O)Nc3cc(C(C)(C)C(F)(F)F)on3)cc2)c2c(N)ncnc21 [Compound T-2, 1-(4-(4-amino-1-isopropyl-1H-pyrazolo[3,4-d]pyrimidin-3-yl)phenyl)-3-(5-(1,1,1-trifluoro-2-methylprop-2-yl)isoxazol-3-yl)urea]
- Number of animals at the beginning/end of assay [1]: 3/3
- Average weight g (x ± S), Day 0 of administration [1]: 19.6 ± 0.47 g
- Average weight g (x ± S), Day 13 of administration [1]: 21.7 ± 0.74 g
- Weight change rate (%), Day 13 of administration [1]: 11.05%
- tolerability (weight loss, drug withdrawal, drug toxicity) [1]: well tolerated
- Tumor volume (x ± S), Day 0 of administration [2]: 102 ± 5.51 mm^3
- TGI (%), Day 14 of administration [2]: 63.9%
- Tumor volume (x ± S), Day 14 of administration [2]: 588.7 ± 25.3 mm^3
- IC50 (Ret wt): ≤ 0.5 nM
- IC50 (RET V804M): 1 to 10 nM
- Tumor volume (x ± S), Day 0 of administration [3]: 94.3 ± 3.84 mm^3
- Tumor volume (x ± S), Day 13 of administration [3]: 150.7 ± 4.33 mm^3
- TGI (%), Day 13 of administration [3]: 84.6%
- relative tumor inhibition rate TGI (%) [3]: 84.6%
- Number of animals at the beginning/end of assay [4]: 3/3
- Average weight g (x ± S), Day 0 of administration [4]: 20.1 ± 0.56 g
- Average weight g (x ± S), Day 14 of administration [4]: 21.7 ± 0.59 g
- Weight change rate (%), Day 14 of administration [4]: 8.1%
- tolerability (weight loss, drug withdrawal, drug toxicity) [4]: well tolerated

Structure (SMILES): CC(C)n1cc(-c2ccc(CC(=O)Nc3cc(C(C)(C)C(F)(F)F)on3)cc2)c2c(N)ncnc21 [Compound T-3, 2-(4-(4-amino-7-isopropyl-7H-pyrrolo[2,3-d]pyrimidin-5-yl)phenyl)-N-(5-(1,1,1-trifluoro-2-methylprop-2-yl)isoxazol-3-yl)acetamide]
- Number of animals at the beginning/end of assay [1]: 3/3
- Average weight g (x ± S), Day 0 of administration [1]: 19.9 ± 1.18 g
- Average weight g (x ± S), Day 13 of administration [1]: 23.1 ± 1.49 g
- Weight change rate (%), Day 13 of administration [1]: 16.01%
- tolerability (weight loss, drug withdrawal, drug toxicity) [1]: well tolerated
- Tumor volume (x ± S), Day 0 of administration [2]: 104 ± 10.44 mm^3
- TGI (%), Day 14 of administration [2]: 96.3%
- Tumor volume (x ± S), Day 14 of administration [2]: 153.7 ± 13.22 mm^3
- IC50 (Ret wt): ≤ 0.5 nM
- IC50 (RET V804M): 1 to 10 nM
- Tumor volume (x ± S), Day 0 of administration [3]: 102 ± 7.77 mm^3
- Tumor volume (x ± S), Day 13 of administration [3]: 132.7 ± 11.78 mm^3
- TGI (%), Day 13 of administration [3]: 91.6%
- relative tumor inhibition rate TGI (%) [3]: 91.6%
- Number of animals at the beginning/end of assay [4]: 3/3
- Average weight g (x ± S), Day 0 of administration [4]: 19.6 ± 0.84 g
- Average weight g (x ± S), Day 14 of administration [4]: 21.5 ± 0.7 g
- Weight change rate (%), Day 14 of administration [4]: 9.8%
- tolerability (weight loss, drug withdrawal, drug toxicity) [4]: well tolerated

Structure (SMILES): CC(C)n1nc(-c2ccc(CC(=O)Nc3cc(C(C)(C)C(F)(F)F)on3)c(F)c2)c2c(N)ncnc21 [Compound T-6, 2-(4-(4-amino-1-isopropyl-1H-pyrazolo[3,4-d]pyrimidin-3-yl)-2-fluorophenyl)-N-(5-(1,1,1-trifluoro-2-methylprop-2-yl)isoxazol-3-yl)acetamide]
- Number of animals at the beginning/end of assay [1]: 3/3
- Average weight g (x ± S), Day 0 of administration [1]: 19.4 ± 0.66 g
- Average weight g (x ± S), Day 13 of administration [1]: 22.4 ± 0.46 g
- Weight change rate (%), Day 13 of administration [1]: 15.75%
- tolerability (weight loss, drug withdrawal, drug toxicity) [1]: well tolerated
- Tumor volume (x ± S), Day 0 of administration [2]: 104 ± 3.61 mm^3
- TGI (%), Day 14 of administration [2]: 99.7%
- Tumor volume (x ± S), Day 14 of administration [2]: 108.7 ± 31.33 mm^3
- IC50 (Ret wt): ≤ 0.5 nM
- IC50 (RET V804M): 0.5 to 1 nM
- Tumor volume (x ± S), Day 0 of administration [3]: 93 ± 8.33 mm^3
- Tumor volume (x ± S), Day 13 of administration [3]: 89.7 ± 4.48 mm^3
- TGI (%), Day 13 of administration [3]: 100.9%#
- relative tumor inhibition rate TGI (%) [3]: 100.9%
- Number of animals at the beginning/end of assay [4]: 3/3
- Average weight g (x ± S), Day 0 of administration [4]: 19.3 ± 0.57 g
- Average weight g (x ± S), Day 14 of administration [4]: 21 ± 0.91 g
- Weight change rate (%), Day 14 of administration [4]: 8.8%
- tolerability (weight loss, drug withdrawal, drug toxicity) [4]: well tolerated
